Experiments:
[1] = system: barium-stimulated intestinal transit of the charcoal meal; experiment: Irritable bowel syndrome: intestinal transit of a charcoal meal in conscious mice, barium chloride stimulated; assay type: in vivo, mouse
Experimental: (§1) The test used is a modification of the method of Macht and Barba-Gose, J. Amer. Pharm. […] In the present model, intestinal transit in conscious mice (15-20 g) was accelerated with an oral dose of barium chloride (300 mg/kg) administered at the same time as the charcoal meal. The animals were sacrificed 10 minutes later and the distance travelled by the charcoal measured. 1-diphenyl-methyl-4-[(2-(4-methylphenyl)-5-methylimidazol-4-yl)methyl]-piperazine trihydrochloride was given as a 15 minute oral pre-treatment and its effect on non-stimulated or barium-stimulated intestinal transit of the charcoal meal was calculated.

[2] = system: abnormal neurones in brain after bilateral common carotid artery occlusion; experiment: Five minute model of bilateral common carotid artery occlusion in the gerbil with 72 hour survival; assay type: in vivo; conditions: then b.i.d. for 72 h
Experimental: In vivo protective effects of the compounds of this invention against the deleterious effects of cerebral ischemia are determined by use of the standard gerbil brain ischemia model.
A. Five minute model of bilateral common carotid artery occlusion in the gerbil with 72 hour survival
2) Sham-operated animals--The animals were anesthetized with a halothane-nitrous oxide-oxygen mixture. […] The microscopic sections were prepared and counted as in 1) above. In this case 7 animals were used and 100 microscopic fields were counted.
3) Untreated ischemic controls--In this case animals were subjected to 5 minute bilateral carotid artery occlusion with 72 hour survival. The microscopic sections were prepared and counted as in 1) above. In this case 12 animals were used and 120 microscopic fields were counted.
(§2) 4) Parenteral, 15 minute pre-ischemia treated--The animals were given 500 mg/kg i.p. of 1-diphenylmethyl-4-[(2-(4-methylphenyl)-5-methylimidazol-4-yl)methyl]piperazine trihydrochloride 15 minutes prior to ischaemic insult. The treatment was repeated b.i.d. for 72 hours. The microscopic sections were prepared and counted as in 1) above. In this case 10 animals were used and 100 microscopic fields were counted.
as §2, with “5) Parenteral” for “4) Parenteral,”, “pre-ischemic” for “pre-ischemia”, “250” for “500”, “Treatment” for “The treatment”, “6” for “10”, “60” for “100”
as §2, with “6) Parenteral” for “4) Parenteral,”, “post-ischemia” for “pre-ischemia”, “after” for “prior to”, “9” for “10”, “90” for “100”
7) Oral, pre-ischemia treated--The animals were given 5 mg/kg p.o. b.i.d. of 1-diphenyl-methyl-4-[(2-(4-methylphenyl)-5-methylimidazol-4-yl)-methyl]piperazine trihydrochloride for 3 days and on the 4th day at 1 hour pre-ischaemic. Treatment was repeated b.i.d. for 72 hours. The microscopic sections were prepared and counted as in 1) above. In this case 11 animals were used and 110 microscopic fields were counted.
8) Oral, pre-ischemia treated--The animals were given 10 mg/kg p.o. of 1-diphenyl-methyl-4-[(2-(4-methylphenyl)-5-methylimidazol-4-yl)-methyl]piperazine trihydrochloride for 3 days and on 4th day at 1 hour pre-ischaemia.Treatment was repeated b.i.d. for 72 hours. The microscopic sections were prepared and counted as in 1) above. In this case 9 animals were used and 90 microscopic fields were counted.

[3] = system: male normotensive rats (urine volume, sodium and potassium excretion); experiment: Diuresis in male normotensive rats; assay type: in vivo, rat
Experimental: Male normotensive rats weighing 290-380 g were divided into four groups of seven animals. All animals were fasted and deprived of water overnight. The following morning, each group of rats was hydrated with deionized water ([…]. p.o.) 45 minutes prior to the administration of vehicle (1% polysorbate 80 in deionized water) or 1-diphenyl-methyl-4-[(2-(4-methylphenyl)-5-methylimidazol-4-yl)methyl]-piperazine trihydrochloride at doses of 5, 15, or 30 mg/kg p.o. Fifteen minutes post-drug, the animals were saline loaded (30 ml/kg, p.o. 0.9% sodium chloride) and placed individually in metabolism cages. Urine was collected at 1, 3, and 6 hour intervals post-dose. Urine volumes were measured and sodium and potassium levels were determined by flame photometry. Differences between control and treated values were evaluated by one way analysis of variance.

[4] = system: abnormal neurones in brain areas after four vessel occlusion; experiment: Ten minute model of four vessel occlusion with 72 hour survival; assay type: in vivo; conditions: 100 mg/kg i.a. 5 min plus 500 mg/kg i.p. 15 min post-ischaemia
Experimental: B. Ten minute Model of four vessel occlusion with 72 hour survival.
The procedure used was that of Alps, et al., Neurology, 37, 809 (1987). The object of this assay was to count abnormally appearing cells in 7 different areas and exymers as a percentage of the total area counted. The number of counts per structure depended upon size, e.g., cortical areas had double the number of other areas. Mean whole brain scores were also determined for percent abnormalities. Normal brains were also used to account for incidence of artifact changes attributed to the fixation process.
. In this case 6 animals were used with the results shown in the below table.
2) Untreated (saline) ischemic controls--The animals were subjected to 10 minutes of bilateral common cartoid artery occlusion (with previously surgically sealed vertebral arteries) with 72 hours survival. The microscopic sections were prepared as in 1) above. In this case 11 animals were used with the results shown in the below table.
Parenteral, post-ischaemia treated--The animals were given 100 mg/kg i.a. of 1-diphenyl-methyl-4-[(2-(4-methylphenyl)-5-methylimidazol-4-yl)-methyl]piperazine trihydrochloride 5 minutes post-ischaemia plus 500 mg/kg i.p. of 1-diphenyl-methyl-4-[(2-(4-methylphenyl)-5-methylimidazol-4-yl)-methyl]piperazine trihydrochloride 15 minutes post-ischaemia. The microscopic sections were prepared according to 1) above. In this case 5 animals were used with the results shown in the below table.

[5] = system: non-stimulated intestinal transit of the charcoal meal; experiment: Intestinal transit of a charcoal meal in conscious mice, non-stimulated; assay type: in vivo; conditions: Mus musculus, po, 15 min pre-treatment, read-out: % Inhibition Normal Transition
Experimental: as §1

[6] = system: pentylenetetrazole-induced seizures and mortality; experiment: Effect on pentylenetetrazole-induced seizures and mortality in the mouse; assay type: in vivo, mouse (male CDI); conditions: 500 mg/kg i.p., pentylenetetrazole 100 mg/kg s.c.
Experimental: C. The effect of 1-diphenyl-methyl-4-[(2-(4-methylphenyl)-5-methylimidazol-4-yl)-methyl]piperazine trihydrochloride on pentylenetetrazole-induced seizures and mortality in the mouse.
The procedure used was that described in Allely, and Alps, Br. J. Phramacol. Proc. Suppl., 92, 605P (1987). Groups of 20 or more (see n in table) male CDI mice were predosed with 500 mg/kg i.p. of 1-diphenyl-methyl-4-[(2-(4-methylphenyl)-5-methylimidazol-4-yl)methyl]piperazine trihydrochloride at one of three dosing schedules--A (15minutes), B (60 minutes), or C (3 days b.i.d. plus 15 minutes on 4th day)--before challenging with 100 mg/kg of pentylenetetrazole s.c. The animals were then observed for a 30 minute period and the occurrence of clonic or tonic seizures or death noted. Statistical analysis was by a Chi squared test of association. Results compared against saline treated animals are shown in the below table.

[7] = in vivo; cited from earlier work
[8] = schedule C (3 days b.i.d. plus 15 minutes on 4th day), n=24

Compound: Cc1ccc(-c2nc(CN3CCN(C(c4ccccc4)c4ccccc4)CC3)c(C)[nH]2)cc1.Cl.Cl.Cl [1-diphenylmethyl-4-[(2-(4-methylphenyl)-5-methylimidazol-4-yl)methyl]piperazine trihydrochloride]
- inhibition at 5 mg/kg ([1]; Mus musculus, po, 5 mg/kg p.o., 15 min pre-treatment, % of total transit induced by Ba^+2, read-out: % Inhibition of Ba^+2 effect): 14%
- inhibition at 25 mg/kg ([1]; Mus musculus, po, 25 mg/kg p.o., 15 min pre-treatment, % of total transit induced by Ba^+2, read-out: % Inhibition of Ba^+2 effect): -30.4%
- inhibition at 60 mg/kg ([1]; Mus musculus, po, 60 mg/kg p.o., 15 min pre-treatment, % of total transit induced by Ba^+2, read-out: % Inhibition of Ba^+2 effect): -31.7%
- mean % abnormal neurones ([2]; 5 mg/kg p.o. b.i.d. 3 days and 1 h pre-ischemia): 3.00±1.00%
- mean % abnormal neurones ([2]; 10 mg/kg p.o. 3 days and 1 h pre-ischemia): 22.00±3.10%
- mean % abnormal neurones ([2]; 250 mg/kg i.p. 15 min pre-ischemia): 27.20±4.30%
- mean % abnormal neurones ([2]; 500 mg/kg i.p. 15 min post-ischemia): 41.70±4.60%
- mean % abnormal neurones ([2]; 500 mg/kg i.p. 15 min pre-ischemia): 26.90±3.30%
- Potassium ion, Cumulative ([3]; 5 mg/kg p.o., 1 hour): .04 ± .03 mEq
- Sodium ion, Cumulative ([3]; 5 mg/kg p.o., 1 hour): .07 ± .06 mEq
- Urine Volume, Cumulative ([3]; 5 mg/kg p.o., 1 hour): 5.7 ± 2.5 mL
- Potassium ion, Cumulative ([3]; 5 mg/kg p.o., 3 hours): .16 ± .09 mEq
- Sodium ion, Cumulative ([3]; 5 mg/kg p.o., 3 hours): .39 ± .25 mEq
- Urine Volume, Cumulative ([3]; 5 mg/kg p.o., 3 hours): 9.5 ± 3.6 mL
- Potassium ion, Cumulative ([3]; 5 mg/kg p.o., 6 hours): .26 ± .12 mEq
- Sodium ion, Cumulative ([3]; 5 mg/kg p.o., 6 hours): .73 ± .32 mEq
- Urine Volume, Cumulative ([3]; 5 mg/kg p.o., 6 hours): 11.8 ± 3.9 mL
- Potassium ion, Cumulative ([3]; 15 mg/kg p.o., 1 hour): .04 ± .05 mEq
- Sodium ion, Cumulative ([3]; 15 mg/kg p.o., 1 hour): .12 ± .16 mEq
- Urine Volume, Cumulative ([3]; 15 mg/kg p.o., 1 hour): 5.7 ± 4.4 mL
- Potassium ion, Cumulative ([3]; 15 mg/kg p.o., 3 hours): .12 ± .06 mEq
- Sodium ion, Cumulative ([3]; 15 mg/kg p.o., 3 hours): .44 ± .20 mEq
- Urine Volume, Cumulative ([3]; 15 mg/kg p.o., 3 hours): 9.8 ± 3.2 mL
- Potassium ion, Cumulative ([3]; 15 mg/kg p.o., 6 hours): .20 ± .08 mEq
- Sodium ion, Cumulative ([3]; 15 mg/kg p.o., 6 hours): .68 ± .28 mEq
- Urine Volume, Cumulative ([3]; 15 mg/kg p.o., 6 hours): 11.7 ± 3.3 mL
- Potassium ion, Cumulative ([3]; 30 mg/kg p.o., 1 hour): .04 ± .03 mEq
- Sodium ion, Cumulative ([3]; 30 mg/kg p.o., 1 hour): .15 ± .12 mEq
- Urine Volume, Cumulative ([3]; 30 mg/kg p.o., 1 hour): 6.5 ± 2.3 mL
- Potassium ion, Cumulative ([3]; 30 mg/kg p.o., 3 hours): .15 ± .08 mEq
- Sodium ion, Cumulative ([3]; 30 mg/kg p.o., 3 hours): .79 ± .38 mEq
- Urine Volume, Cumulative ([3]; 30 mg/kg p.o., 3 hours): 10.5 ± 2.5 mL
- Potassium ion, Cumulative ([3]; 30 mg/kg p.o., 6 hours): .27 ± .06 mEq
- Sodium ion, Cumulative ([3]; 30 mg/kg p.o., 6 hours): 1.48 ± .24 mEq
- Urine Volume, Cumulative ([3]; 30 mg/kg p.o., 6 hours): 14.6 ± 1.4 mL
- diuresis ([3]; 30 mg/kg p.o., at 1 hour and 6 hours post-drug): significant (p<0.05) diuresis
- natriuretic effect ([3]; 30 mg/kg p.o., at the 3 and 6 hour time periods): significant natriuretic effect
- kaliuretic effects ([3]; following compound administration, p.o.): No significant kaliuretic effects were observed
- Mean % Abnormal Neurones, Hip C2-5 ([4]; Hip C2-5): 1.78 ± 0.99%
- Mean % Abnormal Neurones, Hip CA ([4]; Hip CA): 16.76 ± 4.00%
- Mean % Abnormal Neurones, Hip. Cortex ([4]; Hip. Cortex): 2.41 ± 0.30%
- Mean % Abnormal Neurones, Purk. cells ([4]; Purk. cells): 2.22 ± 0.79%
- Mean % Abnormal Neurones, Str. Cortex ([4]; Str. Cortex): 2.01 ± 0.29%
- Mean % Abnormal Neurones, Striatum ([4]; Striatum): 1.54 ± 0.33%
- Mean % Abnormal Neurones, Thalamus ([4]; Thalamus): 0.64 ± 0.25%
- inhibition at 5 mg/kg ([5]; 5 mg/kg p.o.): -19.3%
- inhibition at 25 mg/kg ([5]; 25 mg/kg p.o.): -28.7%
- inhibition at 60 mg/kg ([5]; 60 mg/kg p.o.): -16.1%
- % clonic seizures ([6]; schedule A (15 minutes), n=20): 85.0%
- % death ([6]; schedule A (15 minutes), n=20): 50.0%
- % tonic seizures ([6]; schedule A (15 minutes), n=20): 85.0%
- % clonic seizures ([6]; schedule B (60 minutes), n=25): 88.0%
- % death ([6]; schedule B (60 minutes), n=25): 36.0%
- % tonic seizures ([6]; schedule B (60 minutes), n=25): 64.0%
- % clonic seizures [6, 8]: 66.7%
- % death [6, 8]: 45.0%
- % tonic seizures [6, 8]: 41.7%

Compound: [Ba+2].[Cl-].[Cl-] [barium chloride, reference compound]
- % Change Ba^+2 ([1]; barium chloride 300 mg/kg oral, effect of Ba^+2 on transit): +93%

Compound: Clc1ccccc1CN1CCc2sccc2C1 [ticlopidine]
- risk of a second ischemic event [7]: demonstrated to reduce the risk of a second ischemic event

Source: patent publication US5276034A, “Substituted imidazolyl-alkyl-piperazine and -diazepine derivatives” (Syntex Pharmaceutical Ltd., priority 1991, dated 1994)
